# Experimental data published in publication PMC11882969 (Nature Communications, 2025).
# Target: CB1 (rCB1) (Rattus norvegicus, UniProt P20272)
# Assay: Single-point radioligand displacement screen
# Assay type: binding
# Conditions: for % 1H-CP-55,940 displacement (mean) from single point screen: 10 µM, 1 µM or 300 nM by cell colour (not visible); for rep1_displacement / rep2_displacement / rep3_displacement: Figure 1c source data; for rep1_displacement: replicate 1; for rep2_displacement: replicate 2; for rep3_displacement: replicate 3; for % radioligand displacement [S.D]: single point at 10 µM, three replicates
# CB1 (rCB1), sequence (P20272 whole entry): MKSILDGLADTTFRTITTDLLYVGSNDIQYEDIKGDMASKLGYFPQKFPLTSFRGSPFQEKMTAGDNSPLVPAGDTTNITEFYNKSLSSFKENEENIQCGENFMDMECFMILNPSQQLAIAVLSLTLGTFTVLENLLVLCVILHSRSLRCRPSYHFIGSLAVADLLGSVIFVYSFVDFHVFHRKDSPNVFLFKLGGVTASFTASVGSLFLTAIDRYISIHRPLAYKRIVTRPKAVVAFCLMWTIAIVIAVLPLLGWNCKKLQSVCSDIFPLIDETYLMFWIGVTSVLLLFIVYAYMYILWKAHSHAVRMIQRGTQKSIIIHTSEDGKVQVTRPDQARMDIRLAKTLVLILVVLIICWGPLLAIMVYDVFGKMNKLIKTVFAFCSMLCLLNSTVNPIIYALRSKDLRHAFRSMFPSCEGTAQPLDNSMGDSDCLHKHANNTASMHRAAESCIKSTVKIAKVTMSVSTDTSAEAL
Compound,"% 1H-CP-55,940 displacement (mean) from single point screen [%]",rep1_displacement,rep2_displacement,rep3_displacement,% radioligand displacement [S.D]
CCOC(=O)C1(NC(=O)c2cc(C)n(-c3cccc(Cl)c3)n2)CCCCC1 [compound 64801],31.60,–,–,–,–
O=C(OCC1CSc2ccccc2O1)c1cc(Oc2ccccc2)ccn1 (centres unmarked) [compound 50267],15.53,–,–,–,–
O=C(OCC1CSc2ccccc2O1)c1csc(Cc2ccccc2)n1 (centres unmarked) [compound 86798],2.04,–,–,–,–
COc1cc(C(=O)OCC2CCCN2c2ccc(C)nn2)ccc1Cl (centres unmarked) [compound 65703],17.38,11.4,18.4,22.4,–
O=C(OCc1ccc(Cl)cc1-n1cncn1)c1ccnc(OC2CCC2)c1 [compound 91451],17.98,15.6,20.4,–,–
Cc1nn(CC2CC2)c(C)c1Cc1nc(Cc2ccc3c(c2)OCO3)no1 [7019_28],36.27,–,–,–,–
Cc1c(C(=O)OCC2CSc3ccccc3S2)cnn1Cc1ccccc1 (centres unmarked) [7800_26],69.84,–,–,–,–
CCCC1CN(C(=O)c2cc(Oc3cccc(Br)c3)ccn2)CCO1 (centres unmarked) [compound 83628],12.80,14,14.4,10.1,–
COC(=O)[C@@H](NC(=O)c1cc(C)n(-c2cccc(Cl)c2)n1)c1ccc(OC)cc1 [compound 69543],10.83,–,–,–,–
Cc1c(C(=O)NCC2CSc3ccccc3O2)cnn1-c1ccc(C(F)(F)F)cc1 (centres unmarked) [compound 6445],46.11,–,–,–,–
Cc1nc(CC2CC2)oc1-c1nc(Cn2c(C(C)C)nc3ccccc32)no1 [7019_26],42.67,–,–,–,–
Cc1nc(CC2CC2)oc1-c1nc(-c2ccc3c(c2)OCO3)no1 [compound 5962],10.45,–,–,–,–
Cc1c(C(=O)NCC2CSc3ccccc3O2)nnn1Cc1ccc(F)cc1 (centres unmarked) [compound 22139],13.03,–,–,–,–
Cc1cc(C(=O)NC(CCO)Cc2ccccc2)nn1-c1ccc(F)cc1 (centres unmarked) [compound 15032],-0.53,–,–,–,–
COc1ccc(Cc2noc(-c3oc(CC4CC4)nc3C)n2)cc1 [compound 8861],15.76,–,–,–,–
c1ccc(-c2nc(C3CC3)sc2-c2nnc(-c3ccc4c(c3)OCO4)o2)cc1 [7019_32],39.89,–,–,–,–
Cc1cc(C(=O)NC(c2ccc(Cl)cc2)c2ccn(C)n2)nn1-c1cccc(F)c1 (centres unmarked) [compound 17429],23.12,–,–,–,–
O=C1Cc2cc(-c3csc(Cc4ccc(F)cc4)n3)cc3c2N1CCC3 [‘1038],53.57,56.9,51.4,52.5,53.6% [2.91]
Cn1nc(-c2nnc(C(C)(C)Oc3cccc(Cl)c3)o2)c2ccccc2c1=O [0450_22],43.54,–,–,–,–
CC(C)c1ncc(Cl)c(C(=O)N2CC(Cc3ccccc3Cl)C2)n1 [compound 56513],36.74,17.6,25.1,67.5,–

Compound,"% 1H-CP-55,940 displacement (mean) from single point screen [%]",rep1_displacement,rep2_displacement,rep3_displacement,% radioligand displacement [S.D]
Cc1cc(C(=O)N2CC3(CCC3)C2c2ccco2)nn1-c1cccc(C(F)(F)F)c1 (centres unmarked) [10_10],94.41,–,–,–,–
Cn1nc(CNC(=O)C(C)(C)Oc2ccc(Cl)cc2)c2ccccc2c1=O [0450_26],7.64,–,–,–,–
C[C@@H](COC(=O)c1nn(C)c(=O)c2ccccc12)Oc1ccc(Cl)cc1 [0450_14],28.77,–,–,–,–
O=C(Nc1cccc2ccsc12)c1ccn(-c2cccc(F)c2)n1 [1486_22],-3.59,–,–,–,–
COc1ccc(OC(C)(C)c2nnc(-c3nn(C)c(=O)c4ccccc34)o2)cc1 [compound 9753],51.55,–,–,–,–
CC1C(C(F)(F)F)CCN1C(=O)c1csc(N(C)c2ccccc2)n1 (centres unmarked) [compound 27005],32.20,31.7,30.7,34.2,–
COC(=O)C(NC(=O)c1cc(C)n(-c2ccccc2)n1)c1cccnc1 (centres unmarked) [compound 03453],-5.45,–,–,–,–
COC(=O)C(NC(=O)c1cc(C)n(-c2cccc(Cl)c2)n1)c1ccc(C(F)(F)F)cc1 (centres unmarked) [compound 14083],24.29,–,–,–,–
O=C(OCC1CSc2ccccc2O1)c1ccc(Cn2cccc2)cc1 (centres unmarked) [compound 30177],18.40,–,–,–,–
O=C1C(=O)N(C23CC4CC(CC(C4)C2)C3)C(=O)N1CC1CCC(C(F)(F)F)CC1 (centres unmarked) [compound 8441],47.91,51.8,42.6,49.3,–
O=C(CCc1ccccc1)c1cn(C2(c3ccc(F)cc3)CCOCC2)nn1 [‘7337],56.96,60.4,55.9,54.6,57.0% [3.04]
O=c1c2cnn(-c3ccccc3)c2nnn1Cc1cc(Cl)ccc1Cl [compound 59552],38.03,36.6,38.4,39.1,–
COC(=O)c1cc(C(=O)N2CCc3ccc(Cl)cc3C2)cc([N+](=O)[O-])c1 [compound 25719],24.96,30.1,24.6,20.2,–
Cc1cc(C(=O)NC(c2ccccc2)c2ccco2)nn1-c1cccc(F)c1 (centres unmarked) [compound 88684],39.72,–,–,–,–
N#CCCn1ncc(C(=O)OCC2CSc3ccccc3O2)c1-c1ccccc1 (centres unmarked) [compound 0372],41.18,–,–,–,–
O=C1CN(C(=O)c2cc3cc(Br)ccc3o2)CN1Cc1ccccc1 [compound 46675],22.64,22.6,–,–,–
Cc1c(C(=O)OCC2COc3ccccc3O2)cnn1Cc1ccccc1 (centres unmarked) [compound 32445],35.36,–,–,–,–
Cc1cc(C(=O)NC(c2cccs2)C(C)(C)CO)nn1-c1cccc(Cl)c1 (centres unmarked) [compound 78220],5.56,–,–,–,–
Fc1ccc(-n2ncc3c(SCc4cc(-c5ccco5)on4)ncnc32)cc1 [compound 23397],17.08,23,15.9,12.4,–
C=CCn1c(SC(C)COC)nc2cc(-c3ccccc3)sc2c1=O (centres unmarked) [compound 50746],26.93,27.8,26.8,26.1,–

Compound,"% 1H-CP-55,940 displacement (mean) from single point screen [%]",rep1_displacement,rep2_displacement,rep3_displacement,% radioligand displacement [S.D]
COC(=O)[C@@H]1[C@@H]2CCC[C@@H]2CN1C(=O)c1nn(-c2cccc(C(F)(F)F)c2)c2c1CCC2 [10_17],98.24,–,–,–,–
Cn1cc2c(n1)CCCC2c1nc(C2(c3cccc(C(F)(F)F)c3)CC2)no1 (centres unmarked) [compound 18525],41.38,39.7,46.2,38.2,–
COC(=O)C(OC(=O)c1cc(C)n(-c2ccc(F)cc2)n1)c1ccccc1 (centres unmarked) [compound 62406],-3.66,–,–,–,–
Cc1nc(CC2CC2)oc1-c1nc(Cc2ccc(OCc3ccccn3)cc2)no1 [compound 9841],19.42,–,–,–,–
Cc1c(C(=O)OCC2CN(c3ccccc3)C(=O)O2)cnn1Cc1ccccc1 (centres unmarked) [compound 5081],31.79,–,–,–,–
COCc1nc(-c2nc(Cc3ccc4c(c3)OCO4)no2)c(-c2ccccc2)s1 [7019_29],24.10,–,–,–,–
Cn1nc(-c2nnc(C(C)(C)Oc3ccc(C#N)cc3)o2)c2ccccc2c1=O [0450_23],-19.18,–,–,–,–
COC(=O)CC(NC(=O)c1cc(C)n(-c2ccc(OC)cc2)n1)c1cccs1 (centres unmarked) [compound 90711],7.24,–,–,–,–
Cc1c(C(=O)OCC2CSc3ccccc3O2)cnn1Cc1ccc2ccccc2c1 (centres unmarked) [7800_24],50.03,–,–,–,–
CCOC(=O)c1nc(-c2nc(Cc3cc4c(cc3Br)OCO4)no2)cs1 [7019_300],3.83,–,–,–,–
"CCCCCCC1(c2cc(O)c3c(c2)OC(C)(C)[C@@H]2CC[C@@H](O)C[C@@H]32)CCC1 [AM2389, reference compound]",–,99.9,99.9,99.8,–
CC(Oc1ccccc1)c1noc(-c2ccc(=O)n(-c3ccc(F)cc3)n2)n1 (centres unmarked) [compound 34765],18.38,25,13.3,16.8,–
CC1OCCC12CN(C(=O)c1oc3ccccc3c1COc1ccccc1)CCO2 (centres unmarked) [compound 70889],46.62,47.8,46.3,45.8,–
COC(=O)C(NC(=O)c1ccc(-c2ccccc2F)o1)c1ccsc1 (centres unmarked) [compound 07099],3.88,–,–,–,–
CC(C)(C)c1c(C(=O)OCC2CSc3ccccc3O2)cnn1Cc1ccccc1 (centres unmarked) [7800_22],73.02,–,–,–,–
N#Cc1cccc(-n2ccc(C(=O)OCC3CSc4ccccc4O3)n2)c1 (centres unmarked) [compound 2666],30.46,–,–,–,–
O=C(OCc1nc2ccccc2o1)c1cnn(Cc2ccccc2Cl)c1 [compound 3652],32.00,–,–,–,–
COC(=O)C(NC(=O)c1cc(-c2cccc(F)c2)c2ccccc2c1)c1cccs1 (centres unmarked) [1486_17],8.92,–,–,–,–
